Experimental data from the supplement of paper PMC9402605.

Tests used:
Test in all cases: number of L4/adult animals relative to DMSO control (development) (fraction of control); higher = more growth (less toxic); extreme values may be limits of the assay
Conditions in all cases: concentration unit: uM
[1] = system: DA1316 avr-14;avr-15;glc-1
Method: (§1)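 About 20 L1 larvae of wild-type or anthelmintic-resistant C. elegans strains were grown in 96-well plates with HB101 E. coli and a compound dilution series (0.6% DMSO). The number of L4/adult animals was counted after 72 h (day 7 for the slow-growing PR1152) and normalised to DMSO wells. Values are the mean of 3 biological replicates, each done in technical triplicate.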

PR1152 cha-1(p1152) = system: PR1152 cha-1(p1152)
Method: as §1

CB1072 unc-29(e1072) = system: CB1072 unc-29(e1072)
Method: as §1

RB2119 acr-23(ok2804) = system: RB2119 acr-23(ok2804)
Method: as §1

CF1038 daf-16(mu86) = system: CF1038 daf-16(mu86)
Method: as §1

RP2674 mev-1(tr393) = system: RP2674 mev-1(tr393)
Method: as §1

N2 = system: N2
Method: as §1

VC731 unc-63(ok1075) = system: VC731 unc-63(ok1075)
Method: as §1

NM1968 slo-1(js379) = system: NM1968 slo-1(js379)
Method: as §1

CB3474 ben-1(e1880) = system: CB3474 ben-1(e1880)
Method: as §1

O=C(NCCc1ncc(C(F)(F)F)cc1Cl)c1ccccc1C(F)(F)F [fluopyram]
number of L4/adult animals
Conditions | CB1072 unc-29(e1072) | CB3474 ben-1(e1880) | CF1038 daf-16(mu86) | N2 | NM1968 slo-1(js379) | PR1152 cha-1(p1152) | RB2119 acr-23(ok2804) | RP2674 mev-1(tr393) | VC731 unc-63(ok1075) | [1]
concentration: 0.09375 | 0.915 | 1.01 | 1.02 | 1.06 | 0.984 | 0.97 | 1.01 | 1.1 | 0.961 | 0.958
concentration: 0.1875 | 0.705 | 0.812 | 0.957 | 0.953 | 0.617 | 0.284 | 0.981 | 1.14 | 0.651 | 0.854
concentration: 0.375 | 0.689 | 0.674 | 0.451 | 0.712 | 0.0215 | 0 | 0.372 | 1.01 | 0.305 | 0.176
concentration: 0.75 | 0 | 0 | 0 | 0 | 0 | 0 | 0 | 0.999 | 0 | 0
concentration: 1.5 | 0 | 0 | 0 | 0 | 0 | 0 | 0 | 1.06 | 0 | 0
concentration: 3 | 0 | 0 | 0 | 0 | 0 | 0 | 0 | 1.03 | 0 | 0
concentration: 6 | 0 | 0 | 0 | 0 | 0 | 0 | 0 | 0.91 | 0 | 0

c1ccc([C@H]2CN3CCSC3=N2)cc1 [levamisole]
number of L4/adult animals
Conditions | CB1072 unc-29(e1072) | CB3474 ben-1(e1880) | CF1038 daf-16(mu86) | N2 | NM1968 slo-1(js379) | PR1152 cha-1(p1152) | RB2119 acr-23(ok2804) | RP2674 mev-1(tr393) | VC731 unc-63(ok1075) | [1]
concentration: 9.375 | 1.09 | 0.906 | 0.606 | 0.964 | 0.888 | 0.329 | 0.95 | 0.783 | 1 | 0.774
concentration: 18.75 | 1.07 | 0.964 | 0.91 | 0.973 | 0.984 | 0.207 | 0.812 | 0.942 | 1.03 | 1.01
concentration: 37.5 | 1.1 | 1.06 | 1.01 | 1.05 | 0.95 | 0.0255 | 0.632 | 1.04 | 0.996 | 0.984
concentration: 75 | 1.01 | 0.914 | 0.827 | 1.08 | 0.856 | 0.00498 | 0.47 | 0.914 | 1.09 | 0.871
concentration: 150 | 1.08 | 0.627 | 0.678 | 0.535 | 0.595 | 0 | 0.13 | 0.352 | 1.07 | 0.487
concentration: 300 | 0.988 | 0.403 | 0.335 | 0.218 | 0.0768 | 0 | 0.0225 | 0.0923 | 1.02 | 0.106
concentration: 600 | 1.04 | 0.0551 | 0.0591 | 0.0242 | 0 | 0 | 0 | 0.029 | 1.04 | 0.00556
